In patent publication US11384060B2, “Amide compounds and use thereof” (ALPHALA CO., LTD., priority 2017, dated 2022):

What was measured:
glucagon receptor (GCGR) = biological target: T1, glucagon receptor (GCGR) (Homo sapiens, UniProt P47871); assay: I125-glucagon binding assay (competition, GCGR membrane fractions); conditions: competition with I125-glucagon 0.0625 nM, membrane fractions of GCGR overexpressed CHO-K1 cells
T1 construct: expressed in transfected cells; host or cells: CHO-K1 cells overexpressing GCGR (membrane fractions)
T1 sequence (P47871 26-477): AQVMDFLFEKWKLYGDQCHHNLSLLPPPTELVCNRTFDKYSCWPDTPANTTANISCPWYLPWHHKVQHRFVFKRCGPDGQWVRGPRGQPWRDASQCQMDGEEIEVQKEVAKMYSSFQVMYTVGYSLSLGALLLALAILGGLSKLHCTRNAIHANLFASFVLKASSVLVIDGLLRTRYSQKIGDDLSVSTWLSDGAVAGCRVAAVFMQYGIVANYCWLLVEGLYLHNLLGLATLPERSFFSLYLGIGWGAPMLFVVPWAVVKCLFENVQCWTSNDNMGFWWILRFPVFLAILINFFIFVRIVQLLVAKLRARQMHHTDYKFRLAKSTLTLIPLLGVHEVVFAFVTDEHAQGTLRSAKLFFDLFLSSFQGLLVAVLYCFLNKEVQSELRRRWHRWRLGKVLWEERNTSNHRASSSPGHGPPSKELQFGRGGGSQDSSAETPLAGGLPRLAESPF
Method in brief: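 Membranes from CHO-K1 cells overexpressing GCGR, 7.5 μg/well in 50 mM Tris pH 7.4 with 0.5% BSA, were preincubated 5 min with serially diluted compounds, then given 0.0625 nM final I^125-glucagon for 30 min at 25° C. Bound label was filtered on PEI-coated GF/B and counted; IC50 by non-linear regression.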

[1] = biological target: T2, glucagon receptor (GCGR) overexpressed CHO-K1 cells or human primary hepatocytes (Homo sapiens, UniProt P47871); assay: Glucagon cAMP inhibition assay (Cisbio cAMP Dynamic 2 HTRF); format: cell-based; conditions: inhibition of glucagon (EC50 concentration) induced cAMP production
T2 construct: expressed in transfected cells; host or cells: GCGR overexpressed CHO-K1 cells or human primary hepatocytes (endogenous receptor)
T2 sequence (P47871 26-477): as above
Method in brief: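 GCGR-overexpressing CHO-K1 cells or human primary hepatocytes in HBSS with 0.1% BSA and 800 nM IBMX, pre-incubated 30 min with serially diluted compounds (1% DMSO final), then stimulated 30 min at room temperature with glucagon at its EC50. cAMP measured by HTRF after 60 min lysis; IC50 by non-linear regression.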

IC50 (glucagon receptor (GCGR)) [nM]	IC50 cAMP [1] [nM]	Structure (SMILES)
93	495	CC(C)[C@@H](COc1cc(F)c(-c2cc3ccccc3o2)c(F)c1)Nc1ccc(C(=O)NCCC(=O)O)cc1 [Compound 7-1, (S)-3-(4-((1-(4-(benzofuran-2-yl)-3,5-difluorophenoxy)-3-methylbutan-2-yl)amino)benzamido)propanoic Acid]
177	201	CC(C)[C@@H](COc1cc(F)c(-c2ccc(C(F)(F)F)cc2Cl)c(F)c1)Nc1ccc(C(=O)NCCC(=O)O)cc1 [Compound 7-2, (S)-3-(4-((1-((2′-chloro-2,6-difluoro-4′-(trifluoromethyl)-[1,1′-biphenyl]-4-yl)oxy)-3-methylbutan-2-yl)amino)benzamido)propanoic Acid]
107	140	CC(C)[C@@H](COc1cc(F)c(-c2ccc(C(F)(F)F)cc2)c(F)c1)Nc1ccc(C(=O)NCCC(=O)O)cc1 [Compound 7-3, (S)-3-(4-((1-((2,6-difluoro-4′-(trifluoromethyl)-[1,1′-biphenyl]-4-yl)oxy)-3-methylbutan-2-yl)amino)benzamido)propanoic Acid]
182	165	CC(C)[C@@H](COc1cc(F)c(-c2ccc(C(F)(F)F)cc2F)c(F)c1)Nc1ccc(C(=O)NCCC(=O)O)cc1 [Compound 7-4, (S)-3-(4-((3-methyl-1-((2,2′,6-trifluoro-4′-(trifluoromethyl)-[1,1′-biphenyl]-4-yl)oxy)butan-2-yl)amino)benzamido)propanoic Acid]
75	811	CC(C)C[C@@H](COc1cc(F)c(-c2ccc(C(F)(F)F)cc2Cl)c(F)c1)Nc1ccc(C(=O)NCCC(=O)O)cc1 [Compound 7-5, (S)-3-(4-((1-((2′-chloro-2,6-difluoro-4′-(trifluoromethyl)-[1,1-biphenyl]-4-yl)oxy)-4-methylpentan-2-yl)amino)benzamido)propanoic Acid]
144	371	CC(C)C[C@@H](COc1cc(F)c(-c2ccc(C(F)(F)F)cc2)c(F)c1)Nc1ccc(C(=O)NCCC(=O)O)cc1 [Compound 7-6, (S)-3-(4-((1-((2,6-difluoro-4′-(trifluoromethyl)-[1,1′-biphenyl]-4-yl)oxy)-4-methylpentan-2-yl)amino)benzamido)propanoic Acid]
307	689	CC(C)C[C@@H](COc1cc(F)c(-c2ccc(C(F)(F)F)cc2F)c(F)c1)Nc1ccc(C(=O)NCCC(=O)O)cc1 [Compound 7-7, (S)-3-(4-((4-methyl-1-((2,2′,6-trifluoro-4′-(trifluoromethyl)-[1,1′-biphenyl]-4-yl)oxy)pentan-2-yl)amino)benzamido)propanoic Acid]
49	329	CC(C)C[C@@H](COc1cc(F)c(-c2ccc(Cl)cc2Cl)c(F)c1)Nc1ccc(C(=O)NCCC(=O)O)cc1 [Compound 7-8, (S)-3-(4-((1-((2′,4′-dichloro-2,6-difluoro-[1,1′-biphenyl]-4-yl)oxy)-4-methylpentan-2-yl)amino)benzamido)propanoic Acid]

The remaining lines, values behind:

Structure (SMILES)	IC50 (glucagon receptor (GCGR)) [nM]	IC50 cAMP [1] [nM]
CC(C)[C@@H](COc1ccc(-c2cc3ccccc3o2)c(Cl)c1)Nc1ccc(C(=O)NCCS(=O)(=O)O)cc1 [Compound 3-18, (S)-2-(4-((1-(4-(benzofuran-2-yl)-3-chlorophenoxy)-3-methylbutan-2-yl)amino)benzamido)ethane-1-sulfonic Acid]	836	>30000
CC[C@H](C)[C@@H](COc1cc(Cl)c(-c2cc3ccccc3o2)cc1Cl)Nc1ccc(C(=O)NCCC(=O)O)cc1 [Compound 3-19, 3-(4-(((2S,3S)-1-(4-(benzofuran-2-yl)-2,5-dichlorophenoxy)-3-methylpentan-2-yl)amino)benzamido)propanoic Acid]	64	130
CC[C@H](C)[C@@H](COc1cc(Cl)c(-c2ccc(C(F)(F)F)cc2Cl)cc1Cl)Nc1ccc(C(=O)NCCC(=O)O)cc1 [Compound 3-20, 3-(4-(((2S,3S)-3-methyl-1-((2,2′,5-trichloro-4′-(trifluoromethyl)-[1,1′-biphenyl]-4-yl)oxy)pentan-2-yl)amino)benzamido)propanoic Acid]	73	44
CC[C@H](C)[C@@H](COc1cc(Cl)c(-c2ccc(C(F)(F)F)cc2F)cc1Cl)Nc1ccc(C(=O)NCCC(=O)O)cc1 [Compound 3-21]	295	653
CCCC[C@@H](COc1ccc(-c2ccc(C(F)(F)F)cc2F)c(Cl)c1)Nc1ccc(C(=O)NCCC(=O)O)cc1 [Compound 3-22, (S)-3-(4-((1-((2-chloro-2′-fluoro-4′-(trifluoromethyl)-[1,1′-biphenyl]-4-yl)oxy)hexan-2-yl)amino)benzamido)propanoic Acid]	83	54
CC(C)(C)[C@@H](COc1ccc(-c2cc3ccccc3o2)c(Cl)c1)Nc1ccc(C(=O)NCCC(=O)O)cc1 [Compound 3-23, (S)-3-(4-((1-(4-(benzofuran-2-yl)-3-chlorophenoxy)-3,3-dimethylbutan-2-yl)amino)benzamido)propanoic Acid]	156	293
CC(C)(C)[C@@H](COc1ccc(-c2ccc(C(F)(F)F)cc2F)c(Cl)c1)Nc1ccc(C(=O)NCCC(=O)O)cc1 [Compound 3-24, (S)-3-(4-((1-((2-chloro-2′-fluoro-4′-(trifluoromethyl)-[1,1′-biphenyl]-4-yl)oxy)-3,3-dimethylbutan-2-yl)amino)benzamido)propanoic Acid]	53	80
CC(C)[C@@H](COc1ccc(-c2ccc(C(F)(F)F)cc2)cc1)Nc1ccc(C(=O)NCCC(=O)O)cn1 [Compound 4-1, (S)-3-(6-((3-methyl-1-((4′-(trifluoromethyl)-[1,1′-biphenyl]-4-yl)oxy)butan-2-yl)amino)nicotinamido)propanoic Acid]	369	626.9
CC(C)[C@@H](COc1ccc(-c2cc3ccccc3o2)cc1)Nc1ccc(C(=O)NCCC(=O)O)cn1 [Compound 4-2, (S)-3-(6-((1-(4-(benzofuran-2-yl)phenoxy)-3-methylbutan-2-yl)amino)nicotinamido)propanoic Acid]	90	121.3
CC[C@H](C)[C@@H](COc1ccc(-c2ccc(Cl)cc2Cl)cc1)Nc1ccc(C(=O)NCCC(=O)O)cn1 [Compound 4-3, 3-(6-(((2S,3S)-1-((2′,4′-dichloro-[1,1′-biphenyl]-4-yl)oxy)-3-methylpentan-2-yl)amino)nicotinamido)propanoic Acid]	610	414
CC[C@H](C)[C@@H](COc1ccc(-c2nnc(C(C)(C)C)o2)cc1)Nc1ccc(C(=O)NCCC(=O)O)cn1 [Compound 4-4, 3-(6-(((2S,3S)-1-(4-(5-(tert-butyl)-1,3,4-oxadiazol-2-yl)phenoxy)-3-methylpentan-2-yl)amino)nicotinamido)propanoic Acid]	2390	>30000
CC[C@H](C)[C@@H](COc1ccc(-c2nnc(-c3ccccc3)o2)cc1)Nc1ccc(C(=O)NCCC(=O)O)cn1 [Compound 4-5, 3-(6-(((2S,3S)-3-methyl-1-(4-(5-phenyl-1,3,4-oxadiazol-2-yl)phenoxy)pentan-2-yl)amino)nicotinamido)propanoic Acid]	708	11200
CC(C)[C@@H](CSc1ccc(-c2cc3ccccc3o2)cc1)Nc1ccc(C(=O)NCCC(=O)O)cc1 [Compound 5-1, (S)-3-(4-((1-((4-(benzofuran-2-yl)phenyl)thio)-3-methylbutan-2-yl)amino)benzamido)propanoic Acid]	2040	14405
CC[C@H](C)[C@@H](CSc1ccc(-c2ccc(C(F)(F)F)cc2)cc1)Nc1ccc(C(=O)NCCC(=O)O)cc1 [Compound 5-2, 3-(4-(((2S,3S)-3-methyl-1-((4′-(trifluoromethyl)-[1,1′-biphenyl]-4-yl)thio)pentan-2-yl)amino)benzamido)propanoic Acid]	1190	2465
CC[C@H](C)[C@@H](CSc1ccc(-c2cc3ccccc3o2)cc1)Nc1ccc(C(=O)NCCC(=O)O)cc1 [Compound 5-3, 3-(4-(((2S,3S)-1-((4-(benzofuran-2-yl)phenyl)thio)-3-methylpentan-2-yl)amino)benzamido)propanoic Acid]	400	946.9
CC(C)[C@@H](COc1ccc(-c2cc3ccccc3o2)cc1)N(C)c1ccc(C(=O)NCCC(=O)O)cc1 [Compound 6-1, (S)-3-(4-((1-(4-(benzofuran-2-yl)phenoxy)-3-methylbutan-2-yl)(methyl)amino)benzamido)propanoic Acid]	391	204.2
CCN(c1ccc(C(=O)NCCC(=O)O)cc1)[C@H](COc1ccc(-c2cc3ccccc3o2)cc1)C(C)C [Compound 6-2, (S)-3-(4-((1-(4-(benzofuran-2-yl)phenoxy)-3-methylbutan-2-yl)(ethyl)amino)benzamido)propanoic Acid]	645	164.3
CCOC[C@@H](COc1ccc(-c2cc3ccccc3o2)cc1)Nc1ccc(C(=O)NCCC(=O)O)cc1 [Compound 6-3, (S)-3-(4-((1-(4-(benzofuran-2-yl)phenoxy)-3-ethoxypropan-2-yl)amino)benzamido)propanoic Acid]	479	3859
